For data set [1] the following is noted: results given in the earlier document; cited from earlier work.
Data set [2] concerns souris. Briefly: Interaction with reserpine. The format is in vivo. To be noted: 64 mg/kg, comparison section. Here is the method:
Quatre heures après l'injection intrapéritonéale de 2,5 mg/kg de réserpine, des lots de 6 souris reçoivent le CRL 41131.

Data set [3] relates to rat. Briefly: Interaction with amphetamine. The class given is in vivo. To be noted: comparison section, no dose given.
Data set [4] has as its system souris. Briefly: Electroshock test. To be noted: comparison section, no dose given. The class given is in vivo.
In data set [5] the test system is souris. Briefly: Interaction with barbital. The class given is in vivo. To be noted: comparison section. Here is the method: Trente minutes après l'administration de CRL 41131, des lots de 10 souris reçoivent une injection intrapéritonéale de barbital (220 mg/kg).
The subject of data set [6] is souris. In words: Intergroup aggressiveness. The class given is in vivo. To be noted: 32 et 256 mg/kg, comparison section. How it is done:
Après avoir séjourné pendant 3 semaines dans chacune des moitiés d'une cage séparées par une cloison opaque, des groupes de 3 souris reçoivent le CRL 41131. Trente minutes plus tard, les deux groupes d'une même cage sont réunis par retrait de la cloison et on note le nombre de combats qui surviennent en 10 min.

In data set [7] the test system is souris. In words: Interaction with oxotremorine. The format is in vivo. To be noted: mouse, oxotremorine 0,5 mg/kg i.p. How it is done: Le CRL 41131 est administré à des lots de 6 souris 30 min avant l'injection intrapéritonéale de 0,5 mg/kg d'oxotrémorine.
A short description of data set [8]: in vivo. To be noted: mouse, in vivo; for LD50 at 24 h: dose létale 50% (DL50), 24 h after administration. How it is done:
Le CRL 41131, en suspension dans une solution de gomme arabique à 5%, a été administré par voie intrapéritonéale sous un volume de 20 ml/kg chez la souris (mâle, NMRI, Evic Ceba) et de 5 ml/kg chez le rat (mâle, CD1, Sprague Dawley, Charles River).
Aussitôt après l'administration de CRL 41131, les souris groupées par lots de 10 sont placées dans des boîtes en Plexiglass (20 x 10 x 10 cm).
On note le nombre d'animaux morts, toutes les heures pendant 4 h et après 24, 48 et 72 h.
La toxicité du CRL 41131 est déterminée dans les mêmes conditions sur des lots de souris placées à raison d'une par boîte.

Structures are written as SMILES.

Usually LD50 stands for the dose at which mortality reaches 50%. Lower therefore signals a more toxic substance. On to `O=C(CC(=O)N(c1ccccc1)c1ccccc1)NO` [CRL 40385, reference compound], for which the “effet mis en évidence par un ensemble de tests” value in data set [1] is reported as “effet anti-fatigue”. In addition, the “test à la réserpine: hypothermie” value in data set [2] is recorded as “s'oppose modérément”. Further, in data set [3], the “test à l'amphétamine: stéréotypies du rat” value is on record as “prolonge les stéréotypies du rat”. Moreover, the “test à l'électrochoc” value in data set [4] is “s'oppose aux convulsions”. Also, the “sommeil (association au barbital)” value is listed as “il ne le fait plus” in data set [5] (512 mg/kg) and “diminue d'abord le sommeil” in data set [5] (doses below 512 mg/kg). The “agressivité intergroupe des souris” value in data set [6] is listed as “augmentation”. Besides, the “action hypothermisante de l'oxotrémorine (température)” value in data set [7] was “antagonise l'hyperthermie”. The “intensité des tremblements provoqués par l'oxotrémorine” value in data set [7] is given as “diminue l'intensité des tremblements”. Moreover, the LD50 at 24 h in data set [8] (ip, grouped mice) was about 1050 mg/kg; in data set [8] (ip, isolated mice), about 1500 mg/kg.
Consider `CC(Cc1ccccc1)N(C)Cc1ccccc1` (stereo not shown) [benzophétamine, reference compound], for which the selectivity ratio in data set [8] (ip, rapport, LD50 ratio isolated/grouped mice (formula not readable), same conditions, 24 h) is about 4.
For the compound `CCN(CC)C(C)C(=O)c1ccccc1` (stereo not shown) [diéthylpropion, reference compound], in data set [8], the selectivity ratio at 24 h is about 8.

Source of the values: EP0256909B1, “N,N-bis-(4-fluorophenyl) carbamoyl acetohydroxamic acid and pharmaceutical composition containing it” (priority 1986, dated 1988).
